From patent publication US8623907B2, “Herbicides” (Syngenta Participations, AG, priority 2008, dated 2014) come the findings set out here.

Assay type in all cases: in vivo
Experiment [1] concerns Lolium perenne (LOLPE). Put plainly: Test Example 1, pre-emergence herbicidal activity. Particulars: Rate 500 g/ha; evaluated 20 days later; 100=total damage to plant, 0=no damage to plant. On the procedure: (§1) Monocotyledonous and dicotyledonous test plants were sown in standard soil in pots. After cultivation for one day (pre-emergence) or after 10 days cultivation (post-emergence) under controlled conditions in a glasshouse, the plants were sprayed with an aqueous spray solution derived from the formulation of the technical active ingredient in 0.6 ml acetone and 45 ml formulation solution containing 10.6% Emulsogen EL (Registry number 61791-12-6), 42.2% N-methylpyrrolidone, 42.2% dipropylene glycol monomethyl ether (Registry number 34590-94-8) and 0.2% X-77 (Registry number 11097-66-8). The test plants were then grown in a greenhouse under optimum conditions until, 15 days later for post-emergence and 20 days for pre-emergence, the test was evaluated (100=total damage to plant; 0=no damage to plant). Alopecurus myosuroides (ALOMY), Avena fatua (AVEFA), Lolium perenne (LOLPE), Setaria faberi (SETFA), Digitaria sanguinalis (DIGSA), Echinochloa crus-galli (ECHCG)

Experiment [2] has as its system Echinochloa crus-galli (ECHCG). Description: Test Example 1, pre-emergence herbicidal activity. Particulars: Rate 500 g/ha; evaluated 20 days later; 100=total damage to plant, 0=no damage to plant. On the procedure:
as §1

Experiment [3] deals with Avena fatua (AVEFA). Description: Test Example 1, pre-emergence herbicidal activity. Particulars: Rate 500 g/ha; evaluated 20 days later; 100=total damage to plant, 0=no damage to plant. As for the experimental part:
as §1

In experiment [4] the test system is Setaria faberi (SETFA). Description: Test Example 1, pre-emergence herbicidal activity. To be noted: Rate 500 g/ha; evaluated 20 days later; 100=total damage to plant, 0=no damage to plant. On the procedure:
as §1

The subject of experiment [5] is Digitaria sanguinalis (DIGSA). Put plainly: Test Example 1, pre-emergence herbicidal activity. To be noted: Rate 500 g/ha; evaluated 20 days later; 100=total damage to plant, 0=no damage to plant. As for the experimental part:
as §1

For experiment [6], the system named is Alopecurus myosuroides (ALOMY). Description: Test Example 1, pre-emergence herbicidal activity. To be noted: Rate 500 g/ha; evaluated 20 days later; 100=total damage to plant, 0=no damage to plant. As for the experimental part:
as §1

In experiment [7] the test system is Lolium perenne (LOLPE). Description: Test Example 1, post-emergence herbicidal activity. Particulars: Rate 500 g/ha; evaluated 15 days later; 100=total damage to plant, 0=no damage to plant. On the procedure:
as §1

Experiment [8] relates to Echinochloa crus-galli (ECHCG). Description: Test Example 1, post-emergence herbicidal activity. To be noted: Rate 500 g/ha; evaluated 15 days later; 100=total damage to plant, 0=no damage to plant. As for the experimental part:
as §1

In experiment [9] the test system is Avena fatua (AVEFA). Description: Test Example 1, post-emergence herbicidal activity. To be noted: Rate 500 g/ha; evaluated 15 days later; 100=total damage to plant, 0=no damage to plant. On the procedure: as §1
For experiment [10], the system named is Setaria faberi (SETFA). Put plainly: Test Example 1, post-emergence herbicidal activity. To be noted: Rate 500 g/ha; evaluated 15 days later; 100=total damage to plant, 0=no damage to plant. As for the experimental part:
as §1

Experiment [11] relates to Digitaria sanguinalis (DIGSA). Description: Test Example 1, post-emergence herbicidal activity. Particulars: Rate 500 g/ha; evaluated 15 days later; 100=total damage to plant, 0=no damage to plant. As for the experimental part:
as §1

Experiment [12] has as its system Alopecurus myosuroides (ALOMY). Description: Test Example 1, post-emergence herbicidal activity. Particulars: Rate 500 g/ha; evaluated 15 days later; 100=total damage to plant, 0=no damage to plant. As for the experimental part:
as §1

For experiment [13], the system named is Solanum nigrum (SOLNI). Description: Test Example B, post-emergence herbicidal activity. Particulars: Rate 250 g/ha; evaluated after 13 days; 100=total damage to plant, 0=no damage to plant. As for the experimental part: (§2) Seeds of a variety of test species were sown in standard soil in pots. After cultivation for one day (pre-emergence) or after 8 days cultivation (post-emergence) under controlled conditions in a glasshouse (at 24/16° C., day/night; 14 hours light; 65% humidity), the plants were sprayed with an aqueous spray solution derived from the formulation of the technical active ingredient in acetone/water (50:50) solution containing 0.5% Tween 20 (polyoxyethelyene sorbitan monolaurate, CAS RN 9005-64-5). The test plants were then grown in a glasshouse under controlled conditions in a glasshouse (at 24/16° C., day/night; 14 hours light; 65% humidity) and watered twice daily. After 13 days for pre and post-emergence, the test was evaluated (100=total damage to plant; 0=no damage to plant). Alopecurus myosuroides (ALOMY), Avena fatua (AVEFA), Setaria faberi (SETFA), Echinochloa crus-galli (ECHCG), Solanum nigrum (SOLNI) and Amaranthus retroflexus (AMARE)

In experiment [14] the test system is Echinochloa crus-galli (ECHCG). Description: Test Example B, post-emergence herbicidal activity. To be noted: Rate 250 g/ha; evaluated after 13 days; 100=total damage to plant, 0=no damage to plant. On the procedure:
as §2

Experiment [15] relates to Amaranthus retroflexus (AMARE). Description: Test Example B, post-emergence herbicidal activity. Particulars: Rate 250 g/ha; evaluated after 13 days; 100=total damage to plant, 0=no damage to plant. On the procedure:
as §2

For experiment [16], the system named is Avena fatua (AVEFA). Description: Test Example B, post-emergence herbicidal activity. Particulars: Rate 250 g/ha; evaluated after 13 days; 100=total damage to plant, 0=no damage to plant. On the procedure:
as §2

Experiment [17] concerns Setaria faberi (SETFA). Description: Test Example B, post-emergence herbicidal activity. To be noted: Rate 250 g/ha; evaluated after 13 days; 100=total damage to plant, 0=no damage to plant. On the procedure:
as §2

Experiment [18] deals with Alopecurus myosuroides (ALOMY). Description: Test Example B, post-emergence herbicidal activity. To be noted: Rate 250 g/ha; evaluated after 13 days; 100=total damage to plant, 0=no damage to plant. On the procedure:
as §2

Experiment [19] deals with Solanum nigrum (SOLNI). Description: Test Example B, pre-emergence herbicidal activity. To be noted: Rate 250 g/ha; evaluated after 13 days; 100=total damage to plant, 0=no damage to plant. On the procedure:
as §2

Experiment [20] has as its system Echinochloa crus-galli (ECHCG). Description: Test Example B, pre-emergence herbicidal activity. Particulars: Rate 250 g/ha; evaluated after 13 days; 100=total damage to plant, 0=no damage to plant. As for the experimental part:
as §2

The subject of experiment [21] is Amaranthus retroflexus (AMARE). Description: Test Example B, pre-emergence herbicidal activity. To be noted: Rate 250 g/ha; evaluated after 13 days; 100=total damage to plant, 0=no damage to plant. As for the experimental part:
as §2

The test system of experiment [22] is Avena fatua (AVEFA). Put plainly: Test Example B, pre-emergence herbicidal activity. Particulars: Rate 250 g/ha; evaluated after 13 days; 100=total damage to plant, 0=no damage to plant. As for the experimental part:
as §2

Experiment [23] deals with Setaria faberi (SETFA). Description: Test Example B, pre-emergence herbicidal activity. Particulars: Rate 250 g/ha; evaluated after 13 days; 100=total damage to plant, 0=no damage to plant. As for the experimental part:
as §2

The test system of experiment [24] is Alopecurus myosuroides (ALOMY). Description: Test Example B, pre-emergence herbicidal activity. To be noted: Rate 250 g/ha; evaluated after 13 days; 100=total damage to plant, 0=no damage to plant. As for the experimental part:
as §2

`CCc1ccc(-c2ccc(Cl)cc2Cl)cc1C1(Cl)C(=O)C(C)(C)OC(C)(C)C1=O` [Compound A2, 4-chloro-4-(2′,4′-dichloro-4-ethylbiphen-3-yl)-2,2,6,6-tetramethylpyran-3,5-dione]: in the experiment with Lolium perenne (LOLPE) [1], the “Pre-Emergence Activity LOLPE (damage to plant)” value came to 70. For the same compound, in experiment [2], the “Pre-Emergence Activity ECHCG (damage to plant)” value (from here on “Pre-Emergence Activity ECHCG”) turned out to be 90. Moreover, in the experiment on Avena fatua (AVEFA) [3], the “Pre-Emergence Activity AVEFA (damage to plant)” value (from here on “Pre-Emergence Activity AVEFA”) worked out at 50. Further, in the experiment with Setaria faberi (SETFA) [4], the “Pre-Emergence Activity SETFA (damage to plant)” value (from here on “Pre-Emergence Activity SETFA”) amounted to 90. Besides, the “Pre-Emergence Activity DIGSA (damage to plant)” value in experiment [5] turned out to be 90. For the same compound, in [6], the “Pre-Emergence Activity ALOMY (damage to plant)” value (from here on “Pre-Emergence Activity ALOMY”) was found to be 0. Also, the “Post-Emergence Activity LOLPE (damage to plant)” value in the experiment on Lolium perenne (LOLPE) [7] worked out at 100. The “Post-Emergence Activity ECHCG (damage to plant)” value (from here on “Post-Emergence Activity ECHCG”) in experiment [8] was 100. Besides, the “Post-Emergence Activity AVEFA (damage to plant)” value (shortened to “Post-Emergence Activity AVEFA”) in the experiment on Avena fatua (AVEFA) [9] was determined as 80. For the same compound, in the experiment on Setaria faberi (SETFA) [10], the “Post-Emergence Activity SETFA (damage to plant)” value (“Post-Emergence Activity SETFA” below) came out at 100. The “Post-Emergence Activity DIGSA (damage to plant)” value in experiment [11] is reported as 100. Further, in experiment [12], the “Post-Emergence Activity ALOMY (damage to plant)” value (from here on “Post-Emergence Activity ALOMY”) stood at 60.

For `Cc1ccc(-c2ccc(Cl)cc2)cc1C1(Cl)C(=O)COC(C)(C)C1=O` (stereo not drawn) [Compound A3, 4-chloro-4-(4′-chloro-4-methylbiphenyl-3-yl)-2,2-dimethylpyran-3,5-dione], the “Post-Emergence Activity SOLNI (damage to plant)” value with Solanum nigrum (SOLNI) [13] stood at 0. Moreover, in experiment [14], the “Post-Emergence Activity ECHCG” value is 80. Further, the “Post-Emergence Activity AMARE (damage to plant)” value in experiment [15] worked out at 0. For the same compound, in the experiment with Avena fatua (AVEFA) [16], the “Post-Emergence Activity AVEFA” value is 0. For the same compound, the “Post-Emergence Activity SETFA” value in the experiment with Setaria faberi (SETFA) [17] was 80. In experiment [18], the “Post-Emergence Activity ALOMY” value stood at 0. Also, the “Pre-Emergence Activity SOLNI (damage to plant)” value in the experiment on Solanum nigrum (SOLNI) [19] is recorded as 0. In addition, in experiment [20], the “Pre-Emergence Activity ECHCG” value is listed as 50. For the same compound, the “Pre-Emergence Activity AMARE (damage to plant)” value in [21] amounted to 0. In the experiment on Avena fatua (AVEFA) [22], the “Pre-Emergence Activity AVEFA” value is on record as 0. The “Pre-Emergence Activity SETFA” value in the experiment with Setaria faberi (SETFA) [23] stood at 0. In addition, the “Pre-Emergence Activity ALOMY” value in experiment [24] was determined as 0.

With `CCc1ccc(-c2ccc(Cl)cc2Cl)cc1C1([N+](=O)[O-])C(=O)C(C)(C)OC(C)(C)C1=O` [Compound A1, 4-(2′,4′-dichloro-4-ethylbiphen-3-yl)-2,2,6,6-tetramethyl-4-nitropyran-3,5-dione], the “Pre-Emergence Activity LOLPE (damage to plant)” value in the experiment on Lolium perenne (LOLPE) [1] was 30. In [2], the “Pre-Emergence Activity ECHCG” value is 20. For the same compound, the “Pre-Emergence Activity AVEFA” value with Avena fatua (AVEFA) [3] was determined as 30. The “Pre-Emergence Activity SETFA” value in the experiment with Setaria faberi (SETFA) [4] is on record as 0. Also, the “Pre-Emergence Activity DIGSA (damage to plant)” value in [5] was found to be 70. The “Pre-Emergence Activity ALOMY” value in experiment [6] is reported as 20. Further, the “Post-Emergence Activity LOLPE (damage to plant)” value with Lolium perenne (LOLPE) [7] stood at 100. The “Post-Emergence Activity ECHCG” value in experiment [8] came out at 100. For the same compound, the “Post-Emergence Activity AVEFA” value in the experiment on Avena fatua (AVEFA) [9] came to 70. The “Post-Emergence Activity SETFA” value with Setaria faberi (SETFA) [10] is 100. For the same compound, the “Post-Emergence Activity DIGSA (damage to plant)” value in experiment [11] was found to be 100. Besides, the “Post-Emergence Activity ALOMY” value in experiment [12] was 60.

For the compound `Cc1ccc(-c2ccc(Cl)cc2)cc1C1(Cl)C(=O)C(C)(C)OC(C)(C)C1=O` [Compound A4, 4-Chloro-4-(4′-chloro-4-methylbiphenyl-3-yl)-2,2,6,6-tetramethyl-pyran-3,5-dione], the “Post-Emergence Activity SOLNI (damage to plant)” value with Solanum nigrum (SOLNI) [13] is 0. For the same compound, in experiment [14], the “Post-Emergence Activity ECHCG” value stood at 100. The “Post-Emergence Activity AMARE (damage to plant)” value in experiment [15] stood at 0. The “Post-Emergence Activity AVEFA” value in the experiment with Avena fatua (AVEFA) [16] is listed as 90. Also, the “Post-Emergence Activity SETFA” value in the experiment with Setaria faberi (SETFA) [17] amounted to 100. Moreover, the “Post-Emergence Activity ALOMY” value in [18] is given as 100. Further, the “Pre-Emergence Activity SOLNI (damage to plant)” value in the experiment on Solanum nigrum (SOLNI) [19] was found to be 0. For the same compound, the “Pre-Emergence Activity ECHCG” value in experiment [20] came to 100. Moreover, the “Pre-Emergence Activity AMARE (damage to plant)” value in [21] worked out at 0. The “Pre-Emergence Activity AVEFA” value in the experiment with Avena fatua (AVEFA) [22] was determined as 70. Moreover, the “Pre-Emergence Activity SETFA” value with Setaria faberi (SETFA) [23] amounted to 100. Also, in experiment [24], the “Pre-Emergence Activity ALOMY” value was 30.
